Converted amounts (≈) assume the structure as drawn. The source made the active and inactive calls. The rule behind the calls is not given here.
What was measured:
[1] = system: Cryptococcus neoformans; test: Antifungal activity against Cryptococcus neoformans ZKCC 2209 assessed as fungal growth inhibition incubated for 72 hrs by broth microdilution method; assay type: functional
[2] = system: Candida albicans; test: Antifungal activity against fluconazole-resistant Candida albicans 17# assessed as reduction in fungal growth incubated for 72 hrs by broth microdilution method; assay type: functional
[3] = system: Candida albicans; test: Antifungal activity against fluconazole-resistant Candida albicans 901 assessed as reduction in fungal growth incubated for 72 hrs by broth microdilution method; assay type: functional
[4] = system: A549; test: Cytotoxicity against human A549 cells incubated for 24 hrs by CCK8 assay; assay type: functional, cell-based; conditions: A549, 24 h
[5] = system: HeLa; test: Cytotoxicity against human HeLa cells incubated for 24 hrs by CCK8 assay; assay type: functional, cell-based
[6] = Binding affinity to chitin synthase (unknown origin) assessed as dissociation constant by SPR analysis
[7] = system: Candida albicans; test: Induction of ROS generation in Candida albicans ATCC SC5314 assessed as increase in fluorescence intensity incubated for 12 hrs by fluorescence microscopic analysis; assay type: functional, organism-based
[8] = system: Candida albicans; test: Induction of apoptosis in Candida albicans ATCC SC5314 assessed as early apoptotic cells by V-FITC/PI staining based flow cytometric analysis (reference value: 3.51%); assay type: functional
[9] = system: Candida albicans; test: Induction of apoptosis in Candida albicans ATCC SC5314 assessed as necrotic cells by V-FITC/PI staining based flow cytometric analysis (reference value: 2.74%); assay type: functional
[10] = system: Candida albicans; test: Fungicidal activity against Candida albicans ATCC SC5314 assessed as live cells (reference value: 92%); assay type: functional
[11] = system: Candida albicans; test: Fungicidal activity against Candida albicans ATCC SC5314 assessed as dead cells (reference value: 8%); assay type: functional
[12] = system: Candida albicans; test: In vivo antifungal activity against Candida albicans 901 infected in mouse model assessed as body weight gain at 5 microg/g, iv pre-infected with fungi by intravenous injection followed by compound administration and measured on day 8 in presence of BPE; assay type: functional, organism-based; conditions: dose 5.0 µg/g, time 8.0 day
[13] = system: Candida albicans; test: In vivo antifungal activity against Candida albicans 901 infected in mouse model assessed as body weight gain at 5 microg/g, iv pre-infected with fungi by intravenous injection followed by compound administration and measured on day 8 in presence of 1-MT; assay type: functional, organism-based; conditions: dose 5.0 µg/g, time 8.0 day
[14] = system: Candida albicans; test: In vivo antifungal activity against Candida albicans 901 infected in mouse model assessed as recovery of alveolar structures to normal state in lung at 5 microg/g, iv pre-infected with fungi by intravenous injection followed by compound administration and measured on day 8 in presence of BPE by H and E staining based analysis; assay type: functional, organism-based; conditions: dose 5.0 µg/g, time 8.0 day
[15] = system: Candida albicans; test: In vivo antifungal activity against Candida albicans 901 infected in mouse model assessed as reduction in genetic material content in lung at 5 microg/g, iv pre-infected with fungi by intravenous injection followed by compound administration and measured on day 8 in presence of BPE by H and E staining based analysis; assay type: functional, organism-based; conditions: dose 5.0 µg/g, time 8.0 day
[16] = system: Candida albicans; test: In vivo antifungal activity against Candida albicans 901 infected in mouse model assessed as recovery of alveolar structures to normal state in lung at 5 microg/g, iv pre-infected with fungi by intravenous injection followed by compound administration and measured on day 8 in presence of 1-MT by H and E staining based analysis; assay type: functional, organism-based; conditions: dose 5.0 µg/g, time 8.0 day
[17] = system: Candida albicans; test: In vivo antifungal activity against Candida albicans 901 infected in mouse model assessed as reduction in genetic material content in lung at 5 microg/g, iv pre-infected with fungi by intravenous injection followed by compound administration and measured on day 8 in presence of 1-MT by H and E staining based analysis; assay type: functional, organism-based; conditions: dose 5.0 µg/g, time 8.0 day
[18] = system: Candida albicans; test: In vivo antifungal activity against Candida albicans 901 infected in mouse model assessed as decrease in IL-2 protein expression level at 5 microg/g, iv pre-infected with fungi by intravenous injection followed by compound administration and measured on day 8 by Western blotting analysis; assay type: functional, organism-based; conditions: dose 5.0 µg/g, time 8.0 day
[19] = system: Candida albicans; test: In vivo antifungal activity against Candida albicans 901 infected in mouse model assessed as decrease in IL-2 protein expression level at 5 microg/g, iv pre-infected with fungi by intravenous injection followed by compound administration and measured on day 8 in presence of BPE by Western blotting analysis; assay type: functional, organism-based; conditions: dose 5.0 µg/g, time 8.0 day
[20] = system: Candida albicans; test: In vivo antifungal activity against Candida albicans 901 infected in mouse model assessed as decrease in IL-2 protein expression level at 5 microg/g, iv pre-infected with fungi by intravenous injection followed by compound administration and measured on day 8 in presence of 1-MT by Western blotting analysis; assay type: functional, organism-based; conditions: dose 5.0 µg/g, time 8.0 day
[21] = system: Candida albicans; test: In vivo antifungal activity against Candida albicans 901 infected in mouse model assessed as decrease in IFN-gamma protein expression level at 5 microg/g, iv pre-infected with fungi by intravenous injection followed by compound administration and measured on day 8 in presence of BPE by Western blotting analysis; assay type: functional, organism-based; conditions: dose 5.0 µg/g, time 8.0 day
[22] = system: Candida albicans; test: In vivo antifungal activity against Candida albicans 901 infected in mouse model assessed as decrease in PD-L1 protein expression level at 5 microg/g, iv pre-infected with fungi by intravenous injection followed by compound administration and measured on day 8 in presence of BPE by Western blotting analysis; assay type: functional, organism-based; conditions: dose 5.0 µg/g, time 8.0 day
[23] = system: Candida albicans; test: In vivo antifungal activity against Candida albicans 901 infected in mouse model assessed as decrease in PD-L1 protein expression level at 5 microg/g, iv pre-infected with fungi by intravenous injection followed by compound administration and measured on day 8 in presence of 1-MT by Western blotting analysis; assay type: functional, organism-based; conditions: dose 5.0 µg/g, time 8.0 day
[24] = system: Candida albicans; test: In vivo antifungal activity against Candida albicans 901 infected in mouse model assessed as decrease in IDO protein expression level at 5 microg/g, iv pre-infected with fungi by intravenous injection followed by compound administration and measured on day 8 by Western blotting analysis; assay type: functional, organism-based; conditions: dose 5.0 µg/g, time 8.0 day
[25] = system: Candida albicans; test: In vivo antifungal activity against Candida albicans 901 infected in mouse model assessed as decrease in IDO protein expression level at 5 microg/g, iv pre-infected with fungi by intravenous injection followed by compound administration and measured on day 8 in presence of 1-MT by Western blotting analysis; assay type: functional, organism-based; conditions: dose 5.0 µg/g, time 8.0 day
[26] = system: Candida albicans; test: In vivo antifungal activity against Candida albicans 901 infected in mouse model assessed as increase in CD4positive expression level in presence of BPE; assay type: functional, organism-based
[27] = Toxicity in mouse infected with Candida albicans 901 assessed as change in AST level in presence of 1-MT (reference value: 76.1 +/-4.2 IU/L); conditions: in vivo
[28] = Toxicity in mouse infected with Candida albicans 901 assessed as change in ALT level in presence of BPE (reference value: 42.8 +/-3.9 IU/L); conditions: in vivo
[29] = Toxicity in mouse infected with Candida albicans 901 assessed as change in CRE level in presence of BPE (reference value: 21.5 +/-1.7 umol/L); conditions: in vivo
[30] = Toxicity in mouse infected with Candida albicans 901 assessed as change in CRE level (reference value: 21.5 +/-1.7 umol/L); conditions: in vivo
[31] = Toxicity in mouse infected with Candida albicans 901 assessed as change in CRE level in presence of 1-MT (reference value: 21.5 +/-1.7 umol/L); conditions: in vivo
[32] = Toxicity in mouse infected with Candida albicans 901 assessed as change in BUN level (reference value: 11.4 +/-1.5 mmol/L); conditions: in vivo
[33] = Toxicity in mouse infected with Candida albicans 901 assessed as change in BUN level in presence of 1-MT (reference value: 11.4 +/-1.5 mmol/L); conditions: in vivo

Which results are given for `O=C(CNC(=O)c1nc2ccc(Cl)cc2c(=O)[nH]1)NCC(=O)c1ccccc1`?
MIC50 [1]: 1 µg/mL (≈ 2.51 µM); MIC50 [2]: 4 µg/mL (≈ 10 µM); MIC50 [3]: 4 µg/mL (≈ 10 µM); IC50 [4]: > 50 µM; IC50 [5]: > 50 µM; Kd [6]: 0.00752 µM; Activity [7]: Active; Activity [8]: 14.9%; Activity [9]: 15.9%; Activity [10]: 3%; Activity [11]: 97%; Activity [12]: Active; Activity [13]: Active; Activity [14]: Active; Activity [15]: Active; Activity [16]: Active; Activity [17]: Active; Activity [18]: Active; Activity [19]: Active; Activity [20]: Active; Activity [21]: Active; Activity [22]: Active; Activity [23]: Active; Activity [24]: Active; Activity [25]: Active; Activity [26]: Active; Activity [27]: 74.6 IU/L; Activity [28]: 43.6 IU/L; Activity [29]: 16.3 µmol/L; Activity [30]: 18.7 µmol/L; Activity [31]: 20.8 µmol/L; Activity [32]: 8.2 mmol/L; Activity [33]: 10.3 mmol/L

From ChEMBL document CHEMBL6103585, “Construction and activity evaluation of novel CHS inhibitors against fungal infections” (Eur J Med Chem, 2025)
